The values that follow come from patent publication US11427539B2, “Beta-hydroxy heterocyclic amines and their use in the treatment of hyperglycaemia” (ATROGI AB, priority 2017, dated 2022).

SMILES strings stand for the structures. Counter-ions that a name gives are not always drawn. Like-named read-outs stand apart in the source and are kept apart here.

The test system of assay [1] is Differentiated L6-myotubes. Description: Glucose uptake in differentiated L6-myotubes (3H-2-deoxy-glucose). Format: cell-based. The note with it: for Emax: read-out: Biological example 1: glucose uptake, activity compared to that of isoproterenol; for Biological example 1: glucose uptake, activity compared to that of isoproterenol: Hydrochloride.
Assay [2] relates to Intracellular cAMP levels in differentiated cells (L6-myotubes). The experiment in a line: Measurement of intracellular cAMP levels (alpha screen cAMP kit). The following applies: for Emax: 0.25 h, read-out: Biological example 2: intracellular cAMP levels, activity compared to that of isoproterenol. Format: cell-based. As to the method: L6-myoblasts were grown in Dulbecco's Modified Eagle's Medium (DMEM) containing 4.5 g/l glucose supplemented with 10% fetal bovine serum, 2 mM L-Glutamine, 50 U/ml penicillin, 50 μg/ml streptomycin and 10 mM HEPES. Cells were plated at 1×10^5 cells per ml in 24-well plates. After reaching 90% confluence the cells were grown in medium containing 2% FBS for 7 days where upon cells differentiated into myotubes. Differentiated cells were serum-starved over night and stimulated with agonist, final concentration 1×10-^5, for 15 min in stimulation buffer (HBSS supplemented with 1% BSA, 5 mM HEPES and 1 mM IBMX, pH 7.4) The medium was then aspirated and to end the reaction 100 μL of 95% EtOH was added to each well of a 24-well plate and cells were kept in −20° C. over night. The EtOH was let to evaporate and 500 μL of lysis buffer (1% BSA, 5 mM HEPES and 0.3% Tween-20, pH 7.4) was added to each well before put in −80° C. for 30 min and then kept in −20° C. Intracellular cAMP levels were detected using an alpha screen cAMP kit (6760635D from Perkin Elmer). The activity for each compound is compared to that of isoproterenol.

The mark [3] stands for this setting: agonist final concentration 1×10^−5, L6-myotubes, 3H-2-deoxy-glucose uptake, relative to isoproterenol.
Where [4] appears, read: agonist final concentration 1×10-^5, 15 min, differentiated cells, relative to isoproterenol.

Turning to `CCC[C@@H]1CC[C@H]([C@H](O)c2cccc(F)c2)N1` [Example 7, (R)-(3-Fluorophenyl)((2R,5R)-5-propylpyrrolidin-2-yl)methanol Acetate], the Emax was more than 75% in assay [1] (setting [3]) and less than 25% in assay [2] (setting [4]).
The like results for `CCC[C@H]1CCC[C@H]([C@H](O)c2cccc(Cl)c2)N1` [Example 20, (R)-(3-Chlorophenyl)((2R,6S)-6-propylpiperidin-2-yl)methanol hydrochloride] were, in that order, 25 to 50% and less than 25%.
Turning to `CCC[C@H]1CCC[C@H]([C@H](O)c2cccc(F)c2)N1` [Example 2, (R)-(3-Fluorophenyl)((2R,6S)-6-propylpiperidin-2-yl)methanol], the figures for the Emax in assay [1] (setting [3]) and in assay [2] (setting [4]) were more than 75% and less than 25%, respectively.
The like results for `CCC[C@H]1CCC[C@H]([C@H](O)c2cc(F)cc(F)c2)N1` [Example 3, (R)-(3,5-Difluorophenyl)((2R,6S)-6-propylpiperidin-2-yl)methanol] were, in that order, more than 75% and less than 25%.
For the molecule `CCC[C@@H]1CC[C@H]([C@@H](O)c2cccc(O)c2)N1` [Example 40, 3-((S)-Hydroxy((2R,5R)-5-propylpyrrolidin-2-yl)methyl)phenol], the values for the Emax in assay [1] (setting [3]) and in assay [2] (setting [4]) were 25 to 50% and less than 25%, respectively.
For the molecule `C[C@@H]1CC[C@H]([C@H](O)c2cccc(O)c2)N1` (racemic) [Example 10, Racemic Mixture of 3-((R)-Hydroxy((2R,5R)-5-methylpyrrolidin-2-yl)methyl)-phenol Acetate and 3-((S)-Hydroxy((2S,5S)-5-methylpyrrolidin-2-yl)methyl)phenol Acetate], the Emax in assay [1] (setting [3]) is more than 75%; in assay [2] (setting [4]), less than 25%.
As to `CCC[C@H]1CCC[C@H]([C@H](O)c2cccc(O)c2)N1` [Example 5, 3-((R)-Hydroxy((2R,6S)-6-propylpiperidin-2-yl)methyl)phenol Acetate], the Emax in assay [1] (setting [3]) is more than 75%; in assay [2] (setting [4]), less than 25%.
As to `CCC[C@@H]1CCC[C@H]([C@@H](O)c2ccccc2F)N1` [Example 17, (S)-(2-Fluorophenyl)((2R,6R)-6-propylpiperidin-2-yl)methanol hydrochloride], the values for the Emax in assay [1] (setting [3]) and in assay [2] (setting [4]) were 25 to 50% and less than 25%, respectively.
In the case of `CCC[C@@H]1CCC[C@H]([C@H](O)c2cccc(F)c2)N1` [Example 1, (R)-(3-Fluorophenyl)((2R,6R)-6-propylpiperidin-2-yl)methanol], the Emax in assay [1] (setting [3]) is 25 to 50%; in assay [2] (setting [4]), less than 25%.
For `CCC[C@@H]1CCC[C@@H]([C@H](O)c2cccc(O)c2)N1` [Example 32, 3-((R)-hydroxy((2S,6R)-6-propylpiperidin-2-yl)methyl)phenol Hydrochloride], the Emax is more than 75% in assay [1] (setting [3]) and less than 25% in assay [2] (setting [4]).
On to `CCC[C@H]1CCC[C@@H]([C@H](O)c2cccc(O)c2)N1` [Example 37, (R)-(3-Hydroxyphenyl)((2S, 6S)-6-propylpiperidin-2-yl)methanol], for which the Emax in assay [1] (setting [3]) was 50 to 75%; in assay [2] (setting [4]), less than 25%.
Take `C[C@@H]1CC[C@H]([C@H](O)c2ccccc2)N1` (racemic) [Example 12, Racemic mixture of (R)-((2R,5R)-5-Methylpyrrolidin-2-yl)(phenyl)methanol and (S)-((2S,5S)-5-Methylpyrrolidin-2-yl)(phenyl)methanol]: the Emax in assay [1] was 50 to 75%; in assay [2] it was less than 25%.
For the molecule `CCC[C@@H]1CCC[C@@H]([C@H](O)c2cccc(F)c2)N1` [Example 29, (R)-(3-Fluorophenyl)((2S,6R)-6-propylpiperidin-2-yl)methanol hydrochloride], the Emax in assay [1] (setting [3]) was 25 to 50%; in assay [2] (setting [4]) it was less than 25%.
For `CCC[C@@H]1CCC[C@H]([C@@H](O)c2cccc(F)c2)N1` [Example 13, (S)-(3-Fluorophenyl)((2R,6R)-6-propylpiperidin-2-yl)methanol], the Emax in assay [1] (setting [3]) is 50 to 75%; in assay [2] (setting [4]), less than 25%.
As for `CCC[C@@H]1CCC[C@H]([C@H](O)c2ccccc2F)N1` [Example 16, (R)-(2-Fluorophenyl)((2R,6R)-6-propylpiperidin-2-yl)methanol], the figures for the Emax in assay [1] (setting [3]) and in assay [2] (setting [4]) were 50 to 75% and less than 25%, respectively.
In the case of `CCC[C@H]1CC[C@H]([C@H](O)c2cccc(F)c2)N1` [Example 45, (R)-(3-Fluorophenyl)((2R,5S)-5-propylpyrrolidin-2-yl)methanol], the Emax is 50 to 75% in assay [1] (setting [3]) and less than 25% in assay [2] (setting [4]).
`CCC[C@@H]1CCC[C@H]([C@@H](O)c2cccc(O)c2)N1` [Example 14, 3-((S)-Hydroxy((2R,6R)-6-propylpiperidin-2-yl)methyl)phenol Hydrochloride]: the “Biological example 1: glucose uptake, activity compared to that of isoproterenol” value in assay [1] (setting [3]) was “+ (between 50 and 25%)”. Also, the Emax in assay [2] (setting [4]) was less than 25%.
On to `CCC[C@H]1CCC[C@H]([C@@H](O)c2cc(F)cc(F)c2)N1` [Example 27, (S)-(3,5-Difluorophenyl)((2R,6S)-6-propylpiperidin-2-yl)methanol acetate], for which the Emax in assay [1] (setting [3]) was 25 to 50%; in assay [2] (setting [4]) it was less than 25%.
For the molecule `CCC[C@@H]1CCC[C@H]([C@H](O)c2cccc(O)c2)N1` [Example 6, 3-((R)-Hydroxy((2R,6R)-6-propylpiperidin-2-yl)methyl)phenol], the values for the Emax in assay [1] (setting [3]) and in assay [2] (setting [4]) were 50 to 75% and less than 25%, respectively.
In the same order, the values of `CCC[C@H]1CCC[C@@H]([C@@H](O)c2cccc(F)c2)N1` [Example 35, (S)-(3-Fluorophenyl)((2S,6S)-6-propylpiperidin-2-yl)methanol hydrochloride] are 25 to 50% and less than 25%.
In the same order, the values of `CCC[C@H]1CCC[C@@H]([C@H](O)c2cccc(F)c2)N1` [Example 34, (R)-(3-Fluorophenyl)((2S,6S)-6-propylpiperidin-2-yl)methanol hydrochloride] are 50 to 75% and less than 25%.
For `CCC[C@@H]1CC[C@H]([C@H](O)c2cccc(O)c2)N1` [Example 8, 3-((R)-Hydroxy((2R,5R)-5-propylpyrrolidin-2-yl)methyl)phenol], the values for the Emax in assay [1] (setting [3]) and in assay [2] (setting [4]) were more than 75% and 25 to 50%, respectively.
As for `CCCC1CCC[C@H](C(O)c2cccc(O)c2)N1` (stereo in doubt) [Example 19, 3-((R)-Hydroxy((2R,6R)-6-propylpiperidin-2-yl)methyl)phenol Hydrochloride], the figures for the Emax in assay [1] (setting [3]) and in assay [2] (setting [4]) were 25 to 50% and less than 25%, respectively.
Turning to `CCC[C@@H]1CCCC([C@@H](O)c2cccc(O)c2)N1` (stereo in doubt) [Example 33, 3-((S)-hydroxy((2S,6R)-6-propylpiperidin-2-yl)methyl)phenol Hydrochloride], the “Biological example 1: glucose uptake, activity compared to that of isoproterenol” value in assay [1] (setting [3]) was “++ (between 75 and 50%)”. The “Biological example 2: intracellular cAMP levels, activity compared to that of isoproterenol” value in assay [2] (setting [4]) was “− (less than 25%)”.
Turning to `CCC[C@@H]1CC[C@H]([C@H](O)c2cccc(Cl)c2)N1` [Example 47, (R)-(3-Chlorophenyl)((2R,5R)-5-propylpyrrolidin-2-yl)methanol Maleate], the Emax in assay [1] (setting [3]) was 50 to 75%; in assay [2] (setting [4]) it was less than 25%.
On to `CCC[C@@H]1CCC[C@H]([C@H](O)c2ccc(F)cc2)N1` [Example 15, (R)-(4-Fluorophenyl)((2R,6R)-6-propylpiperidin-2-yl)methanol], for which the Emax in assay [1] (setting [3]) was 50 to 75%; in assay [2] (setting [4]), less than 25%.
Take `CCC[C@@H]1CC[C@@H]([C@H](O)c2cccc(F)c2)N1` [Example 43, (R)-(3-Fluorophenyl)((2S,5R)-5-propylpyrrolidin-2-yl)methanol Hydrochloride]: the Emax in assay [1] (setting [3]) is 25 to 50%; in assay [2] (setting [4]) it was less than 25%.
In the case of `C[C@H]1CC[C@@H]([C@H](O)c2cccc(O)c2)N1` (racemic) [Example 9, Racemic mixture of 3-((R)-Hydroxy((2S,5S)-5-methylpyrrolidin-2-yl)methyl)-phenol Acetate and 3-((S)-Hydroxy((2R,5R)-5-methylpyrrolidin-2-yl)methyl)phenol Acetate], the Emax was 50 to 75% in assay [1] (setting [3]) and less than 25% in assay [2] (setting [4]).
Consider `CCC[C@H]1CCC[C@H]([C@H](O)c2ccccc2F)N1` [Example 22, (R)-(2-Fluorophenyl)((2R,6S)-6-propylpiperidin-2-yl)methanol], for which the Emax is 50 to 75% in assay [1] (setting [3]) and less than 25% in assay [2] (setting [4]).
